Like-named read-outs stand apart in the source and are kept apart here.
Conditions: other bond

Which ring closure, yield of all isomers (from CC(C)(C)n1nc([C@H]2CC[C@@H](OC(=O)Oc3ccc([N+](=O)[O-])cc3)C2)cc1Nc1cc(CCCCCN)nc(C(F)F)c1, DIPEA, THF, 3.27 mM, 30.0 °C, 12.0 h) does the source give for `CC(C)(C)n1nc2cc1Nc1cc(nc(C(F)F)c1)CCCCCNC(=O)O[C@@H]1CC[C@H]2C1` here?
The ring closure, yield of all isomers was 44.1%.

With `CC(C)(C)n1nc2cc1Nc1cc(nc(C(F)F)c1)OCCCCNC(=O)O[C@@H]1CC[C@H]2C1` as the compound, how does the ring closure, yield of all isomers (from CC(C)(C)n1nc([C@H]2CC[C@@H](OC(=O)Oc3ccc([N+](=O)[O-])cc3)C2)cc1Nc1cc(OCCCCN)nc(C(F)F)c1, DIEA, THF, 1.11 mM, 25.0 °C, 12.0 h) read?
Its ring closure, yield of all isomers is 65%.

Which ring closure, yield of all isomers (from CC(C)(C)n1nc([C@H]2CC[C@@H](OC(=O)Oc3ccc([N+](=O)[O-])cc3)C2)cc1Nc1ccnc(C(F)(F)C[C@H]2C[C@H](N)C2)c1, DIEA, THF, 3.33 mM, 25.0 °C, 12.0 h) does the source give for `CC(C)(C)n1nc2cc1Nc1ccnc(c1)C(F)(F)C[C@H]1C[C@@H](C1)NC(=O)O[C@@H]1CC[C@H]2C1` here?
The ring closure, yield of all isomers was 99.9%.

For `CC(C)(C)n1nc2cc1Nc1ccnc(c1)CCCCCNC(=O)O[C@@H]1CC[C@H]2C1`, which ring closure, yield of all isomers (from CC(C)(C)n1nc([C@H]2CC[C@@H](OC(=O)Oc3ccc([N+](=O)[O-])cc3)C2)cc1Nc1ccnc(CCCCCN)c1, DIPEA, THF, 2.0 mM, 30.0 °C, 3.0 h) is on record?
Its ring closure, yield of all isomers is 85%.

With `CC(C)(C)n1nc2cc1Nc1ccnc(c1)OC[C@H]1C[C@@H](C1)NC(=O)O[C@@H]1CC[C@H]2C1` as the compound, how does the ring closure, yield of all isomers (from CC(C)(C)n1nc([C@H]2CC[C@@H](OC(=O)Oc3ccc([N+](=O)[O-])cc3)C2)cc1Nc1ccnc(OC[C@H]2C[C@H](N)C2)c1, DIEA, THF, 1.21 mM, 70.0 °C, 12.0 h) read?
The ring closure, yield of all isomers was 96.7%.

With `CC(C)(C)n1nc2cc1Nc1ccnc(c1)OC[C@H]1C[C@@H](C1)NC(=O)O[C@H]1C[C@@H]2C[C@H]1F` as the compound, how does the ring closure, yield of all isomers (from CC(C)(C)n1nc([C@H]2C[C@@H](F)[C@@H](OC(=O)Oc3ccc([N+](=O)[O-])cc3)C2)cc1Nc1ccnc(OC[C@H]2C[C@H](N)C2)c1, DIEA, THF, 1.7 mM, 60.0 °C, 12.0 h) read?
The ring closure, yield of all isomers was 37%.

For `CC(C)(C)n1nc2cc1Nc1cncc(c1)OCCCCNC(=O)O[C@@H]1CC[C@H]2C1`, which ring closure, yield of all isomers (from CC(C)(C)n1nc([C@H]2CC[C@@H](OC(=O)Oc3ccc([N+](=O)[O-])cc3)C2)cc1Nc1cncc(OCCCCN)c1, DIPEA, THF, 2.01 mM, 25.0 °C, 12.0 h, 2 steps) is on record?
Its ring closure, yield of all isomers is 49.3%.

Which ring closure, yield of all isomers (from CC(C)(C)n1nc([C@H]2CC[C@@H](OC(=O)Oc3ccc([N+](=O)[O-])cc3)C2)cc1Nc1cncc(OC[C@H]2C[C@H](N)C2)n1, DIEA, DMSO, 2.3 mM, 100.0 °C, 12.0 h) does the source give for `CC(C)(C)n1nc2cc1Nc1cncc(n1)OC[C@H]1C[C@@H](C1)NC(=O)O[C@@H]1CC[C@H]2C1` here?
Its ring closure, yield of all isomers is 38%.

Which ring closure, yield of all isomers (from CC(C)(N)CCCOc1cc(Nc2cc([C@H]3CC[C@@H](OC(=O)Oc4ccc([N+](=O)[O-])cc4)C3)nn2C(C)(C)C)ccn1, DIPEA, DMAP, THF, 1.82 mM, 50.0 °C, 39.0 h) does the source give for `CC1(C)CCCOc2cc(ccn2)Nc2cc(nn2C(C)(C)C)[C@H]2CC[C@H](C2)OC(=O)N1` here?
Its ring closure, yield of all isomers is 88.8%.

For `CC1CC23CC(C2)(C3)NC(=O)O[C@@H]2CC[C@@H](C2)c2cc(n(C(C)(C)C)n2)Nc2cc(nc(C(F)F)c2)O1` (stereo partly drawn), which ring closure, yield of all isomers (from CC(CC12CC(N)(C1)C2)Oc1cc(Nc2cc([C@H]3CC[C@@H](OC(=O)Oc4ccc([N+](=O)[O-])cc4)C3)nn2C(C)(C)C)cc(C(F)F)n1, DIEA, THF, 9.15 mM, 80.0 °C, 2.0 h) is on record?
The ring closure, yield of all isomers was 84.7%.

For `CC1CCCOc2cc(ccn2)Nc2cc(nn2C(C)(C)C)[C@H]2CC[C@H](C2)OC(=O)N1` (stereo partly drawn), which ring closure, yield of all isomers (from CC(N)CCCOc1cc(Nc2cc([C@H]3CC[C@@H](OC(=O)Oc4ccc([N+](=O)[O-])cc4)C3)nn2C(C)(C)C)ccn1, DIPEA, THF, 2.06 mM, 30.0 °C, 24.0 h) is on record?
Its ring closure, yield of all isomers is 98.5%.

For `CC1OCCCNC(=O)O[C@@H]2CC[C@@H](C2)c2cc(n(C(C)(C)C)n2)Nc2ccnc1c2` (stereo partly drawn), which ring closure, yield of all isomers (from CC(OCCCN)c1cc(Nc2cc([C@H]3CC[C@@H](OC(=O)Oc4ccc([N+](=O)[O-])cc4)C3)nn2C(C)(C)C)ccn1, DIEA, THF, 6.34 mM, 100.0 °C, 3.0 h) is on record?
Its ring closure, yield of all isomers is 87.5%.

— patent publication US20240317777A1, “NOVEL MACROCYCLIC AMINOPYRAZOLE COMPOUNDS AS CDK2 INHIBITORS” (Accutar Biotechnology Inc., priority 2023, published 2024)
